Laboratory results reported in BindingDB's records for doi:10.1016/S0960-894X(97)10006-3 (1997).

Experiment: Binding affinity for DHP (Dihydropyridine) site of L-type calcium channel of calf heart in the resting state

IC50 [nM]	Compound
250	CCOC(=O)C1=C(C)NC(C)=C(C#N)[C@@H]1c1cnccc1-c1ccccc1
100	CCOC(=O)C1=C(C)NC(C)=C(C#N)[C@@H]1c1cnccc1-c1ccc2ccccc2c1
270	CCOC(=O)C1=C(C)NC(C)=C(C#N)[C@@H]1c1cnccc1-c1cccc2ccccc12
